Columns and labels:
human PTP-1B = molecular target: T1, human PTP-1B (Homo sapiens, UniProt P18031); test: PTP-1B IC50 determination with pNPP substrate; format: biochemical
T1 construct: A shorter cDNA, PTP-1B 298, encoding amino acid residues 1-298 was generated; made in house; host or cells: E. coli BL21 codon plus (Stratagene), pRSETc
T1 sequence (P18031 1-298): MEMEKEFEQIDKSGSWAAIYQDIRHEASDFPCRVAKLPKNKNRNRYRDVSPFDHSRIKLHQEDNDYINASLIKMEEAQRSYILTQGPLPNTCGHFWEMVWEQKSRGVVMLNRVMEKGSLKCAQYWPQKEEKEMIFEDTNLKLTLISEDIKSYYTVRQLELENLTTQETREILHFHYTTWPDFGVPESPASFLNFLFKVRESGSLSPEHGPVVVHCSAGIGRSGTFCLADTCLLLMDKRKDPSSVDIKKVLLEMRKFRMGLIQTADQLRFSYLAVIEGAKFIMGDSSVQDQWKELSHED

TC-PTP = molecular target: T2, TC-PTP (Homo sapiens, UniProt P17706); test: Inhibition of TC-PTP; format: biochemical; conditions: read-out: IC50 against TC-PTP
T2 sequence (P17706 1-415): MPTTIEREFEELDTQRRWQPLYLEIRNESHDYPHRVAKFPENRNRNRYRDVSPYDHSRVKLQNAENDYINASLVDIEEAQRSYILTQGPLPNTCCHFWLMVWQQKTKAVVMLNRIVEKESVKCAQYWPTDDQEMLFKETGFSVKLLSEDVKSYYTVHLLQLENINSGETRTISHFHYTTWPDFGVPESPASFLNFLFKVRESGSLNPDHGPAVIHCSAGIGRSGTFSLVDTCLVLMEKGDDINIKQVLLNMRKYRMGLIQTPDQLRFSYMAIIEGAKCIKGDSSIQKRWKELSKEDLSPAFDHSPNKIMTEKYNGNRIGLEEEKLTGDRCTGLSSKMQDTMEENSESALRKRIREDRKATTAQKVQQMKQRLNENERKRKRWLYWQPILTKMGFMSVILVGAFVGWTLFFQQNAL

[1] = molecular target: tyrosine phosphatase leukocyte common antigen related protein (LAR) (Homo sapiens, UniProt P10586); test: Inhibition of LAR; format: biochemical
Sequence of tyrosine phosphatase leukocyte common antigen related protein (LAR) (P10586 30-1907): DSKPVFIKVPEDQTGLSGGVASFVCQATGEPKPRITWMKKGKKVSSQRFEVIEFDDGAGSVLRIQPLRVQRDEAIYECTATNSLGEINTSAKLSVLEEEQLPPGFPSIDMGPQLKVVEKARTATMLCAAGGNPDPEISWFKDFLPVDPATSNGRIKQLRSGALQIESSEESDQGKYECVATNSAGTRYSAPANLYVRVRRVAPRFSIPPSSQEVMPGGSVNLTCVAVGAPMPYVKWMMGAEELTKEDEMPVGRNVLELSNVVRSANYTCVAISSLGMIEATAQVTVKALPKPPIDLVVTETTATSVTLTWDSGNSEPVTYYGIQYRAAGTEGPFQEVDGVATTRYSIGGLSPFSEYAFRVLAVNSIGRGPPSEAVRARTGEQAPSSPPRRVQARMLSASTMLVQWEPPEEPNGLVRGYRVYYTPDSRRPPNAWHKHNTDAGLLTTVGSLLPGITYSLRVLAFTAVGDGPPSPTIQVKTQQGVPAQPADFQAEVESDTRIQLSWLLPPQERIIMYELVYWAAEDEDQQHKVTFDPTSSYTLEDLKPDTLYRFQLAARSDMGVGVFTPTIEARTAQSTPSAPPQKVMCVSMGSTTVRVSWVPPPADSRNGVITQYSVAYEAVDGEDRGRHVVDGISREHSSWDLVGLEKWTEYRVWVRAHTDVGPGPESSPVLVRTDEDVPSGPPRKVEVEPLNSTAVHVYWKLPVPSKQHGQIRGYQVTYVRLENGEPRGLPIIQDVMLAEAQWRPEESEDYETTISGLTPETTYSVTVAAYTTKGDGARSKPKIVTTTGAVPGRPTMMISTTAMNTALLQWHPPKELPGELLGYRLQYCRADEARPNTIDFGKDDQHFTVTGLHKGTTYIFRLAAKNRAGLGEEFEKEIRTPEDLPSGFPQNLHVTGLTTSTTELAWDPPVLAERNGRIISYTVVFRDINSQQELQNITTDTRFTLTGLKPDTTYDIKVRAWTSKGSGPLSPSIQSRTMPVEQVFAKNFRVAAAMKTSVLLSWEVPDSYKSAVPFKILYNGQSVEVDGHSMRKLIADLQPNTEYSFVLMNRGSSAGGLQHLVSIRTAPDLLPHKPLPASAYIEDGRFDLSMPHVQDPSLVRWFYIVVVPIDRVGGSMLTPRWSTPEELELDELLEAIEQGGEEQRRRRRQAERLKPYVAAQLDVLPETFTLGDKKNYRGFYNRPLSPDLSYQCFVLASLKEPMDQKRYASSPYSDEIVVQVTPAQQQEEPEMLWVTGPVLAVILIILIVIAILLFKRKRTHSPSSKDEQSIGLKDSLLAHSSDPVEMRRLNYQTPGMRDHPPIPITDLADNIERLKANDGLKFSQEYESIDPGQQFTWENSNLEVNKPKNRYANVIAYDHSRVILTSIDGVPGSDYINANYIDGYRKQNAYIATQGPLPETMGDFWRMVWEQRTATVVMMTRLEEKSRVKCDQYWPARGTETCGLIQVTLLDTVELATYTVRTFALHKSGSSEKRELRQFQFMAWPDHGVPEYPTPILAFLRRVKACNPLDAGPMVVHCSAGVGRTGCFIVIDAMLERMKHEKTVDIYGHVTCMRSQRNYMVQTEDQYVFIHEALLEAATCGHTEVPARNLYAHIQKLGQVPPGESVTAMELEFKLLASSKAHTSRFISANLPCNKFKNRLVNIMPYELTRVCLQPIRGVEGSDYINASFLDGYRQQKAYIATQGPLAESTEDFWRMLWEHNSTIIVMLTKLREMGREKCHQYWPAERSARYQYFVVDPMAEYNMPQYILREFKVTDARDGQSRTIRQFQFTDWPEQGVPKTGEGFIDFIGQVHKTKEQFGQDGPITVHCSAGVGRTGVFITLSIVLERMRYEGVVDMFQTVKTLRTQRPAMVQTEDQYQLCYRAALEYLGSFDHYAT

[2] = test system: insulin receptor phosphorylation in CHO-IR cells; test: Insulin receptor phosphorylation in CHO-IR cells (ELISA); format: cell-based; conditions: compound added 1 hour prior to harvesting, FIG. 9
Experimental: This example describes an illustrative assay for quantifying the degree of insulin receptor phosphorylation in cells. Any suitable cells can be used. In this example, CHO-IR cells were grown in DMEM w/10% fetal bovine serum supplemented with penicillin and streptomycin. Cells were plated at a density of 40,000 cells per well in a 96 well plate. The following day, the medium was changed to DMEM without serum and the cells were serum starved for 16 hours. 1 hour prior to harvesting, varying concentrations of a test compound diluted in DMEM were added to the cells. Where indicated, human insulin was added to cells 10 minutes prior to harvesting. Cell were lysed in 30 mM HEPES, 150 mM NaCl, 1% triton X-100, and 0.02% sodium azide. Insulin receptor phosphorylation was quantitated in an ELISA assay as described previously (Jongsoon Lee).

dependence of reaction velocity on substrate concentration (human PTP-1B; pNPP, varying concentrations of inhibitor): sigmoidal dependence
effect on Vmax with increasing inhibitor concentration (human PTP-1B; reaction velocity versus pNPP concentration, FIG. 8): decrease in Vmax
IC50 (TC-PTP): ~130 µM
inhibition of LAR [1]: does not inhibit
SMILES: CCc1oc2cc(S(=O)(=O)Nc3ccc(S(N)(=O)=O)cc3)ccc2c1C(=O)c1cc(Br)c(O)c(Br)c1 [compound 5]
level of insulin receptor phosphorylation [2]: is a function of the concentration of compound 5

— patent US6784205B2, “Compounds that modulate the activity of PTP-1B and TC-PTP” (Sunesis Pharmaceuticals, Inc., priority 2002, dated 2004)
